Measured values reported in US9199997B2, “Purinone derivative hydrochloride” (ONO PHARMACEUTICAL CO., LTD., priority 2011, dated 2015).
In brackets after ≈: the same amount, converted by molar mass.

Assays:
Blood kinetics in dogs = assay type: in vivo; conditions: male, beagle, dog, plasma; solubilized solution (WellSolve), oral gavage 1 mg/kg vs intravenous 1 mg/kg, fasted dogs; read-out: bioavailability (BA)
Method: The kinetic profiles of compound A and the salt thereof (the compound prepared in Example 9) in blood were evaluated in male beagle dogs under fasting conditions. […] For the intravenous and oral solution administrations, a solubilized solution of Compound A dissolved in WellSolve (Celeste Inc.) heated to 60° C. was used. Using the solubilized solutions, doses of 1 mg/1 mL/kg were rapidly administered intravenously with a syringe via a forelimb cephalic vein, and doses of 1 mg/5 mL/kg were administered by gavage using a catheter. […] The concentration of Compound A in the plasma was measured by LC/MS/MS (UPLC/Xevo, Waters). The area under the curve (AUC, ng·h/mL), maximum concentration (Cmax, μg/mL) and clearance (CL, mL/hr/kg) were calculated from the plasma concentration. The bioavailability (BA) of Compound A was calculated from the AUC of the oral dose and the AUC of the intravenous dose.
Moreover, for the oral suspension administration a liquid was prepared by finely pulverizing Compound A and suspending the particles in an aqueous solution of 0.5% methylcellulose, and then administering doses of 3 and 10 mg/kg in the same manner as the forced oral administration by gavage described above. […] The BA values for each administration method and at each concentration were calculated as relative BA by assigning the BA of Compound A in the solubilized solution a value of 100%.

[1] = Measurement of solubility (HPLC); assay type: physicochemical; conditions: thermodynamic from solid; for solubility at 30 min: after 30 min; for solubility at 24 h: after 24 h
Method: <HPLC Measurement Conditions>
Device: HPLC 1100series, Agilent
Column: YMC-Pack ODS-AM AM-302 (4.6 mm ID×150 mm long)
Column temperature: 25° C.
Mobile phase: 20 mM potassium phosphate monobasic (pH 3.0)/acetonitrile (60:40, isocratic)
Sample rack temperature: 25° C.
Sample injection volume: 10 μL

[2] = FaSSIF (artificial intestinal fluid), FaSSIF (pH 6.5)
[3] = FeSSIF (artificial intestinal fluid), FeSSIF (pH 6.5)
[4] = Japanese Pharmacopoeia dissolution test I liquid, simulated gastric fluid, JP dissolution test I liquid (pH 1.2)
[5] = Japanese Pharmacopoeia dissolution test II liquid, aqueous buffer, JP dissolution test II liquid (pH 6.8)
[6] = diluted McIlvaine buffer, aqueous buffer, Dilute McIlvaine buffer (pH 4.0)
[7] = diluted McIlvaine buffer, aqueous buffer, Dilute McIlvaine buffer (pH 7.4)

bioavailability (Blood kinetics in dogs) [%]	solubility at 30 min [1, 2] [µg/mL]	solubility at 24 h [1, 2] [µg/mL]	solubility at 30 min [1, 3] [µg/mL]	solubility at 24 h [1, 3] [µg/mL]	solubility at 30 min [1, 4] [µg/mL]	solubility at 24 h [1, 4] [µg/mL]	solubility at 30 min [1, 5] [µg/mL]	solubility at 24 h [1, 5] [µg/mL]	solubility at 30 min [1, 6] [µg/mL]	solubility at 24 h [1, 6] [µg/mL]	solubility at 30 min [1, 7] [µg/mL]	solubility at 24 h [1, 7] [µg/mL]	solubility at 30 min ([1]; Purified water) [µg/mL]	solubility at 24 h ([1]; Purified water) [µg/mL]	Compound
115	35 (≈ 77 µM)	36 (≈ 79.2 µM)	67 (≈ 147 µM)	84 (≈ 185 µM)	550 (≈ 1210 µM)	717 (≈ 1580 µM)	31 (≈ 68.2 µM)	32 (≈ 70.4 µM)	30 (≈ 66 µM)	34 (≈ 74.8 µM)	29 (≈ 63.8 µM)	29 (≈ 63.8 µM)	32 (≈ 70.4 µM)	34 (≈ 74.8 µM)	CC#CC(=O)N1CC[C@@H](n2c(=O)n(-c3ccc(Oc4ccccc4)cc3)c3c(N)ncnc32)C1 [Compound A, 6-amino-9-[(3R)-1-(2-butynoyl)-3-pyrrolidinyl]-7-(4-phenoxyphenyl)-7,9-dihydro-8H-purin-8-one]
–	145	118	356	301	1220	1210	112	111	125	117	103	106	130	144	CC#CC(=O)N1CC[C@@H](n2c(=O)n(-c3ccc(Oc4ccccc4)cc3)c3c(N)ncnc32)C1.Cl [Example 9, 6-amino-9-[(3R)-1-(2-butynoyl)-3-pyrrolidinyl]-7-(4-phenoxyphenyl)-7,9-dihydro-8H-purin-8-one hydrochloride]
